Laboratory results reported in patent publication US10626368B2, “Method for inducing cerebral cortex neurons” (KYOTO UNIVERSITY, priority 2015, dated 2020).

Test system: ES cells (Kh-1)
Assay: Adhesion of spheres to OFL coat dish
Assay type: cell-based, human
Conditions: 10 nM C59, ES cells (Kh-1)
Source text: Human ES cells (KhES-1) were obtained from Institute for Frontier Medical Sciences, Kyoto University (Suemori H, et al. Biochem Biophys Res Commun. 345: 926-32, 2006). The human iPS cells 404C2 are cells obtained by introducing Oct3/4, Sox2, Klf4, L-MYC, LIN28 and p53shRNA into human fibroblasts, using an episomal vector, and these cells were obtained from Professor Yamanaka et al. in Kyoto University (Okita, et al, Nat Methods. 8: 409-412, 2011). The human iPS cells 836B1 are cells obtained by introducing Oct3/4, Sox2, Klf4, L-MYC, LIN28, GLIS1 and p53shRNA into human fibroblasts, using an episomal vector, and these cells were obtained from Professor Yamanaka et al. in Kyoto University. The ES cells and the iPS cells were cultured on SNL cells (Takahashi K, et al, Cell. 131: 861-872, 2007). The obtained cell mass was transferred on a dish (24-well plate (BD)) coated with 50 μg/ml ornithine (Sigma), 5 μg/ml laminin (Sigma) and 5 μg/ml fibronectin (BD Bioscience Pharmingen), and the culture was continued in Neurobasal (Invitrogen), to which B27 (Invitrogen), 2 mM L-Gln, and 10 units/ml penicillin and streptomycin (Invitrogen) had been added. […] Furthermore, the expression levels of the Foxg1, Lhx2, Emx2 and CoupTF1 genes in the obtained spheres were measured according to a qPCR method (FIG. 4B). […]

Cc1cc(-c2ccc(CC(=O)Nc3ccc(-c4cccnc4)cc3)cc2)ccn1 [C59]
adhesion of spheres to an OFL coat dish: did not adhere so much
